Among the data in patent publication US9156796B2, “Benzoimidazole-carboxylic acid amide derivatives as APJ receptor modulators” (SANOFI, priority 2013, dated 2015) are EC50 values, retold here.

Where two headings read alike, the source gives them in different places.

The assay has as its target T1, human apelin receptor (Homo sapiens, UniProt P35414).
T1 construct: expressed in transfected cells
T1 sequence (P35414 1-380): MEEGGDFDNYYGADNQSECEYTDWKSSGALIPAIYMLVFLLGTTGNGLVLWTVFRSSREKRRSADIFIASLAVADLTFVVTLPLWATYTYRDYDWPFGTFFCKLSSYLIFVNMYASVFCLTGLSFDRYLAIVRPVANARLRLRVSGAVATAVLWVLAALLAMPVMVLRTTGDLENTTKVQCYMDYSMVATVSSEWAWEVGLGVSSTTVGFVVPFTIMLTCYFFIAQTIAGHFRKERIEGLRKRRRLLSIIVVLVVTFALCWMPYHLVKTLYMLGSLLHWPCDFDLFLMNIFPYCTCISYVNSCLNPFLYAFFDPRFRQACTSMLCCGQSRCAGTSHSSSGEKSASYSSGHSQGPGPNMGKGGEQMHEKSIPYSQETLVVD
Nature of the assay: Determination of agonism on the human apelin receptor by a calcium fluorescence assay (FLIPR). In kind it is cell-based. The conditions noted are these: HEK293 cells stably transfected with human apelin receptor and Giaq protein, Fluo-4 calcium fluorescence. The source says:
Determination of Agonism on the Human Apelin Receptor by a Calcium Fluorescence Assay (FLIPR)
The assay is based on the detection of intracellular calcium changes detected by the selective, calcium-chelating dye Fluo-4 (Molecular Probes). A large fluorescence intensity increase is observed upon calcium association with Fluo-4. The dye is delivered to the cell interior using an acetoxymethylester form of Fluo-4, where the intracellular esterase activity results in the charged species being released and trapped within the cytoplasm of the cell. […] By co-expressing the human apelin receptor and a promiscuous Giaq protein, agonism of the apelin receptor couples to phospholipase-C resulting in intracellular calcium mobilization.
The HEK293 cells were stably transfected with the human apelin receptor and the Giaq protein. Cells were selected and maintained in a log phase of growth at 37° and 5% CO2 in the Iscove's minimal essential medium, 10% fetal calf serum, 1× Penicillin-Streptomycin, 400 μg/mL G418. One day prior the assay, cells were passaged by accutase and plated at a density of 50,000 cells/well onto a 96-well plates with black border but clear bottom (Costar, cat#3904) in a final volume of 200 μl growth medium.
In order to load the cells the next day with the calcium-sensitive dye, growth medium was carefully replaced by dye solution (100 μl/well) containing Fluo-4 (4 μM) in basic measurement buffer (135 mM NaCl, 5 mM KCl, 1 mM magnesium sulphate, 5 mM glucose, 20 mM Hepes, 2.5 mM probenecid; adjusted to pH 7.4). Cells were incubated for 1 h at 37° C., and then washed 3× with buffer containing no dye. The washer was programmed to leave a remaining volume of 150 μl after the third wash in the plate.
During the dye-loading of the cells, a serial compound dilution was performed in a separate 96-well plate with overall 4× increased concentrations. Small aliquots of DMSO stock solutions of the compounds (10 mM in 100% DMSO were aliquoted into 150 μl buffer in the first rows of the 96-well plates, and then serially diluted by a factor of 1:3 transferring each time 30 μl to the next rows already containing 60 μl buffer. All compounds were tested in a least 7 concentrations, each condition was performed in triplicates. As comparator, we used freshly prepared apelin-13 solutions, for which also a concentration-response curve was determined at each measurement day. The compound plate was incubated for 10 min after the final dilutions steps at 37° C. before transferring the dye-loaded cell plate and the compound plate into a FLIPR Tetra reader (Molecular Devices). Measurement within this reader started by pipetting the agonist solution (50 μl) on the cell plate. Overall perform 60 reads were performed with an interval of 2 sec. The maximum of the fluorescence transient was used to calculate the agonistic response of the cells. In order to normalize this response, which may vary from plate to plate we set the maximum fluorescence achieved by 1 μM apelin-13 on this plate as 100%.
EC-50 values for apelin-13 and the apelin receptor compounds described in this patent were determined by standard algorithms using a specific software package.

Usually EC50 stands for the concentration that produces a half-maximal response. As for `CCC(CC)n1c(Cc2cccs2)nc2cc(C(=O)N[C@@H](CC(C)C)C(=O)N(C)CCOC)ccc21` [Example 380, 1-(1-Ethyl-propyl)-2-thiophen-2-ylmethyl-1H-benzoimidazole-5-carboxylic acid {(S)-1-[(2-methoxy-ethyl)-methyl-carbamoyl]-3-methyl-butyl}-amide], the EC50 (read-out: EC50 (APJ agonism)) worked out at 586 nM.

In the case of `CCC(CC)n1c(Cc2cccs2)nc2cc(C(=O)N[C@@H](CC3CCCCC3)C(=O)O)ccc21` [Example 125, (S)-3-Cyclohexyl-2-{[1-(1-ethyl-propyl)-2-thiophen-2-ylmethyl-1H-benzoimidazole-5-carbonyl]-amino}-propionic acid], the EC50 (read-out: EC50 (APJ agonism)) was 78 nM.

In the case of `CCC(CC)n1c(Cc2cccs2)nc2cc(C(=O)N[C@H](C(=O)O)C(C)C)ccc21` [Example 122, (S)-2-{[1-(1-Ethyl-propyl)-2-thiophen-2-ylmethyl-1H-benzoimidazole-5-carbonyl]-amino}-3-methyl-butyric acid], the half-maximal effective concentration (EC50) (read-out: EC50 (APJ agonism)) was 4380 nM.

Turning to `CCC(CC)n1c(Cc2cccs2)nc2cc(C(=O)N[C@H](c3nnc(COC)[nH]3)C(C)C)ccc21` [Example 482, 1-(1-Ethyl-propyl)-2-thiophen-2-ylmethyl-1H-benzoimidazole-5-carboxylic acid [(S)-1-(5-methoxymethyl-2H-[1,2,4]triazol-3-yl)-2-methyl-propyl]-amide], the EC50 (read-out: EC50 (APJ agonism)) came to 15700 nM.

Consider `CCC(CC)n1c(Cc2cccs2)nc2cc(C(=O)N[C@@H](CC(C)C)C(=O)Nc3cccc(N(C)C)c3)ccc21` [Example 316, 1-(1-Ethyl-propyl)-2-thiophen-2-ylmethyl-1H-benzoimidazole-5-carboxylic acid [(S)-1-(3-dimethylamino-phenylcarbamoyl)-3-methyl-butyl]-amide], for which the concentration for a half-maximal effect (EC50) (read-out: EC50 (APJ agonism)) turned out to be 22000 nM.

With `CCC(CC)n1c(CC2CCCCC2)nc2cc(C(=O)N[C@@H](CC(C)C)C(=O)O)ccc21` [Example 120, (S)-2-{[2-Cyclohexylmethyl-1-(1-ethyl-propyl)-1H-benzoimidazole-5-carbonyl]-amino}-4-methyl-pentanoic acid], under “read-out: EC50 (APJ agonism)”, the EC50 was 24100 nM.

For the molecule `CCC(CC)n1c(Cc2cccs2)nc2cc(C(=O)N[C@@H](CC(C)C)C(=O)N3CCC(N(CC)Cc4ccccc4)CC3)ccc21` [Example 336, 1-(1-Ethyl-propyl)-2-thiophen-2-ylmethyl-1H-benzoimidazole-5-carboxylic acid {(S)-1-[4-(benzyl-ethyl-amino)-piperidine-1-carbonyl]-3-methyl-butyl}-amide], under “read-out: EC50 (APJ agonism)”, the EC50 worked out at 1260 nM.

Take `CCC(CC)n1c(CC2CCCC2)nc2cc(C(=O)N[C@H](CO)[C@@H](C)CC)ccc21` [Example 180, 2-Cyclopentylmethyl-1-(1-ethyl-propyl)-1H-benzoimidazole-5-carboxylic acid ((1S,2S)-1-hydroxymethyl-2-methyl-butyl)-amide]: the EC50 (read-out: EC50 (APJ agonism)) worked out at 6170 nM.

As for `CCC(CC)n1c(Cc2cccs2)nc2cc(C(=O)N[C@@H](CC(C)C)C(=O)NCC#N)ccc21` [Example 403, 1-(1-Ethyl-propyl)-2-thiophen-2-ylmethyl-1H-benzoimidazole-5-carboxylic acid [(S)-1-(cyanomethyl-carbamoyl)-3-methyl-butyl]-amide], the concentration giving a half-maximal response (EC50) (read-out: EC50 (APJ agonism)) is 1610 nM.

With `O=C(O)C[C@H](Cc1ccccc1)NC(=O)c1ccc2c(c1)nc(Cc1cccs1)n2C1CCCCC1C(F)(F)F` (stereo partly drawn) [Example 103, (S)-4-Phenyl-3-{[2-thiophen-2-ylmethyl-1-(2-trifluoromethyl-cyclohexyl)-1H-benzoimidazole-5-carbonyl]-amino}-butyric acid], where the note is “read-out: EC50 (APJ agonism)”, the EC50 was 11000 nM.

Take `CCC(CC)n1c(Cc2cccs2)nc2cc(C(=O)N[C@@H](CC(C)C)C(=O)NCC3CCN(CCc4ccccc4)C3)ccc21` (stereo partly drawn) [Example 291, 1-(1-Ethyl-propyl)-2-thiophen-2-ylmethyl-1H-benzoimidazole-5-carboxylic acid {(S)-3-methyl-1-[(1-phenethyl-pyrrolidin-3-ylmethyl)-carbamoyl]-butyl}-amide]: the half-maximal effective concentration (EC50) (read-out: EC50 (APJ agonism)) came to 408 nM.

For `CCOCCCNC(=O)[C@H](CC(C)C)NC(=O)c1ccc2c(c1)nc(Cc1cccs1)n2C(CC)CC` [Example 359, 1-(1-Ethyl-propyl)-2-thiophen-2-ylmethyl-1H-benzoimidazole-5-carboxylic acid [(S)-1-(3-ethoxy-propylcarbamoyl)-3-methyl-butyl]-amide], the half-maximal effective concentration (EC50) (read-out: EC50 (APJ agonism)) is 2140 nM.

As to `CCC(CC)n1c(Cc2cccs2)nc2cc(C(=O)N[C@@H](CC(C)C)C(=O)NCCCN3CCCC(C)C3)ccc21` (stereo partly drawn) [Example 339, 1-(1-Ethyl-propyl)-2-thiophen-2-ylmethyl-1H-benzoimidazole-5-carboxylic acid {(S)-3-methyl-1-[3-(3-methyl-piperidin-1-yl)-propylcarbamoyl]-butyl}-amide], the half-maximal effective concentration (EC50) (read-out: EC50 (APJ agonism)) amounted to 444 nM.

As for `CCC(CC)n1c(Cc2cccs2)nc2cc(C(=O)N[C@H](CO)C(C)C)ccc21` [Example 190, 1-(1-Ethyl-propyl)-2-thiophen-2-ylmethyl-1H-benzoimidazole-5-carboxylic acid ((S)-1-hydroxymethyl-2-methyl-propyl)-amide], the EC50 (EC50 (APJ agonism)) is 6280 nM.

`CCC(CC)n1c(Cc2cccs2)nc2cc(C(=O)N[C@@H](CC(C)C)C(=O)NCC3CCCN(CC)C3)ccc21` (stereo partly drawn) [Example 303, 1-(1-Ethyl-propyl)-2-thiophen-2-ylmethyl-1H-benzoimidazole-5-carboxylic acid {(S)-1-[(1-ethyl-piperidin-3-ylmethyl)-carbamoyl]-3-methyl-butyl}-amide]: the EC50 (read-out: EC50 (APJ agonism)) was determined as 214 nM.

With `CCC(CC)n1c(Cc2cccs2)nc2cc(C(=O)N[C@@H](CC(C)C)C(=O)N3CC4CC3CN4CC)ccc21` (stereo partly drawn) [Example 347, 1-(1-Ethyl-propyl)-2-thiophen-2-ylmethyl-1H-benzoimidazole-5-carboxylic acid [(S)-1-(5-ethyl-2,5-diaza-bicyclo[2.2.1]heptane-2-carbonyl)-3-methyl-butyl]-amide], the EC50 (read-out: EC50 (APJ agonism)) amounted to 809 nM.

Take `CCCCC(CO)NC(=O)c1ccc2c(c1)nc(Cc1cccs1)n2C(CC)CC` (centres unmarked) [Example 197, 1-(1-Ethyl-propyl)-2-thiophen-2-ylmethyl-1H-benzoimidazole-5-carboxylic acid (1-hydroxymethyl-pentyl)-amide]: the EC50 (read-out: EC50 (APJ agonism)) turned out to be 1040 nM.

`CCCC[C@H](NC(=O)c1ccc2c(c1)nc(Cc1cccs1)n2C1CCCCC1C)C(=O)O` (stereo partly drawn) [Example 16, (S)-2-{[1-(2-Methyl-cyclohexyl)-2-thiophen-2-ylmethyl-1H-benzoimidazole-5-carbonyl]-amino}-hexanoic acid]: the concentration giving a half-maximal response (EC50) (read-out: EC50 (APJ agonism)) was 117 nM.

Regarding `CCC(C)Cn1c(Cc2cccs2)nc2cc(C(=O)N[C@@H](CC3CCCCC3)C(=O)O)ccc21` (stereo partly drawn) [Example 145, (S)-3-Cyclohexyl-2-{[1-(2-methyl-butyl)-2-thiophen-2-ylmethyl-1H-benzoimidazole-5-carbonyl]-amino}-propionic acid], the half-maximal effective concentration (EC50) (read-out: EC50 (APJ agonism)) was found to be 18000 nM.

In the case of `CCC(CC)n1c(Cc2cccs2)nc2cc(C(=O)N[C@@H](CC(C)C)C(=O)NCCOC(C)C)ccc21` [Example 371, 1-(1-Ethyl-propyl)-2-thiophen-2-ylmethyl-1H-benzoimidazole-5-carboxylic acid [(S)-1-(2-isopropoxy-ethylcarbamoyl)-3-methyl-butyl]-amide], the 50% effective concentration (EC50) (read-out: EC50 (APJ agonism)) turned out to be 3570 nM.
